Format in all cases: biochemical
The target of one experiment is c-Met (Homo sapiens, UniProt P08581). Description: c-Met Inhibition Assay, coupled enzyme system. The note with it: enzyme inhibition data (Ki), Table 11. In short, it runs like this: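 Pyruvate kinase/lactate dehydrogenase-coupled NADH assay in HEPES pH 7.5 with 80 nM c-Met, 200 μM ATP and 10 μM polyGluTyr at 30° C. Compound (0.006–12.5 μM final, 12-point) preincubated 10 min before ATP start; rates over 10 min gave Ki.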

For the next experiment, the target named is T1, Itk (Homo sapiens, UniProt Q08881).
T1 sequence (Q08881 1-620): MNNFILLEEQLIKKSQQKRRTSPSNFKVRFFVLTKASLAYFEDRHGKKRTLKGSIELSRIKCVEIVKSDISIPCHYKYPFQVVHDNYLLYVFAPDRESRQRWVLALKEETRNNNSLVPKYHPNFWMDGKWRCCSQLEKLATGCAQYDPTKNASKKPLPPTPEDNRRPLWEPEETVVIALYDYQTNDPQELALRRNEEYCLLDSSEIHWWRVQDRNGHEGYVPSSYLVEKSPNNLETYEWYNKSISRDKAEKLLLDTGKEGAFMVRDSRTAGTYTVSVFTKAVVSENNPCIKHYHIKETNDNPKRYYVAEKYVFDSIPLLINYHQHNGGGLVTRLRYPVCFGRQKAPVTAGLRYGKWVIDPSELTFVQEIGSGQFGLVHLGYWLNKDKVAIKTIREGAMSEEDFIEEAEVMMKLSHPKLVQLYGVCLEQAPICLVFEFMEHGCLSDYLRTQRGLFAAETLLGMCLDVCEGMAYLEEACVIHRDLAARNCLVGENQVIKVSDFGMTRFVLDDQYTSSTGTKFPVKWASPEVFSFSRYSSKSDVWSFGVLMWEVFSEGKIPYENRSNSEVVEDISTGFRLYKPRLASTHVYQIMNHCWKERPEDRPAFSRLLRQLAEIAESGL
The experiment in a line: ITK Inhibition Assay (Radiometric), radioactive-phosphate incorporation. The note with it: enzyme inhibition data (Ki), Table 11; radiometric or UV assay not stated. The method in brief: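 Radiometric 33P incorporation into SAM68 peptide (D332-443) with filter capture and scintillation counting; 10 min pre-incubation then 10 min reaction at 25° C. IC50 format: 30 nM Itk, 15 μM ATP, 2 μM peptide, HEPES pH 7.5. Ki(app) format: 50 nM Itk, 7.5 μM ATP, 3 μM peptide, MOPS pH 7.0.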

The next experiment has as its target T2, JAK3 (Homo sapiens, UniProt P52333).
T2 sequence (P52333 1-1124): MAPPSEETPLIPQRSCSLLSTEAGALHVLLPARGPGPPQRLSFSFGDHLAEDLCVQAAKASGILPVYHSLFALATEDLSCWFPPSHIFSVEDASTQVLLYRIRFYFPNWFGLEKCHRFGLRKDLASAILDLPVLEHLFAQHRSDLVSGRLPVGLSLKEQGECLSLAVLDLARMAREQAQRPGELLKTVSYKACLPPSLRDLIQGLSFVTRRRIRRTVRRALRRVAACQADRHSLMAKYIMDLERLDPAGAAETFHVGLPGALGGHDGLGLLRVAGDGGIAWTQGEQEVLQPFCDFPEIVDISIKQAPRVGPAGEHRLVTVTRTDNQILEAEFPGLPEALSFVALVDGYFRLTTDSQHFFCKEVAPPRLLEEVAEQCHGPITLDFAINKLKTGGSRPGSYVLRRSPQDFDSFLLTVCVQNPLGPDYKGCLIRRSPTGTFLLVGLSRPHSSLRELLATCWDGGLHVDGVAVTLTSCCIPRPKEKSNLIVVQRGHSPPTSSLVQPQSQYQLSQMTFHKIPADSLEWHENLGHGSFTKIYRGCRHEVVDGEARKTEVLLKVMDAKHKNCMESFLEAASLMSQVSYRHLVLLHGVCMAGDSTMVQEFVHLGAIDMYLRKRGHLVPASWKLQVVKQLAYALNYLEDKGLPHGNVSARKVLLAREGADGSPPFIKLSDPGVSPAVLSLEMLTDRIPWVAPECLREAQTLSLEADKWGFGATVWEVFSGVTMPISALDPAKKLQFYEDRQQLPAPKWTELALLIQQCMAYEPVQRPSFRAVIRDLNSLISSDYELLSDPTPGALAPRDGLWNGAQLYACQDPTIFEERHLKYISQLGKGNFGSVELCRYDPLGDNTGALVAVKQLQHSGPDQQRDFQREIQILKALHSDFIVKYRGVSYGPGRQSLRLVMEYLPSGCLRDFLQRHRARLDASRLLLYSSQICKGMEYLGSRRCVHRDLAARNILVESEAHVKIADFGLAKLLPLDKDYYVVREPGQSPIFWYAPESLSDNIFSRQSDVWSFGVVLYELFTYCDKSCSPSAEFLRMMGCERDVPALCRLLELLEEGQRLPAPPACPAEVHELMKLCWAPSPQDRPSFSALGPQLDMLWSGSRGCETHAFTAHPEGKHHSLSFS
The experiment in a line: JAK3 Inhibition Assay, 33P incorporation. The note with it: enzyme inhibition data (Ki), Table 11. In short, it runs like this: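 Recombinant JAK3 at 1 nM in HEPES pH 7.4 buffer with 10 mM MgCl2, 1 mM DTT and 0.01% BSA. Substrates were 5 μM ATP (200 uCi/μmole) and 1 μM poly(Glu)4Tyr, reacted 20 min at 25 °C. Stopped with TCA, and 33P incorporation counted on glass fiber filters.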

pKi: −log10 of the molar value.

c-Met, sequence (P08581 25-1390): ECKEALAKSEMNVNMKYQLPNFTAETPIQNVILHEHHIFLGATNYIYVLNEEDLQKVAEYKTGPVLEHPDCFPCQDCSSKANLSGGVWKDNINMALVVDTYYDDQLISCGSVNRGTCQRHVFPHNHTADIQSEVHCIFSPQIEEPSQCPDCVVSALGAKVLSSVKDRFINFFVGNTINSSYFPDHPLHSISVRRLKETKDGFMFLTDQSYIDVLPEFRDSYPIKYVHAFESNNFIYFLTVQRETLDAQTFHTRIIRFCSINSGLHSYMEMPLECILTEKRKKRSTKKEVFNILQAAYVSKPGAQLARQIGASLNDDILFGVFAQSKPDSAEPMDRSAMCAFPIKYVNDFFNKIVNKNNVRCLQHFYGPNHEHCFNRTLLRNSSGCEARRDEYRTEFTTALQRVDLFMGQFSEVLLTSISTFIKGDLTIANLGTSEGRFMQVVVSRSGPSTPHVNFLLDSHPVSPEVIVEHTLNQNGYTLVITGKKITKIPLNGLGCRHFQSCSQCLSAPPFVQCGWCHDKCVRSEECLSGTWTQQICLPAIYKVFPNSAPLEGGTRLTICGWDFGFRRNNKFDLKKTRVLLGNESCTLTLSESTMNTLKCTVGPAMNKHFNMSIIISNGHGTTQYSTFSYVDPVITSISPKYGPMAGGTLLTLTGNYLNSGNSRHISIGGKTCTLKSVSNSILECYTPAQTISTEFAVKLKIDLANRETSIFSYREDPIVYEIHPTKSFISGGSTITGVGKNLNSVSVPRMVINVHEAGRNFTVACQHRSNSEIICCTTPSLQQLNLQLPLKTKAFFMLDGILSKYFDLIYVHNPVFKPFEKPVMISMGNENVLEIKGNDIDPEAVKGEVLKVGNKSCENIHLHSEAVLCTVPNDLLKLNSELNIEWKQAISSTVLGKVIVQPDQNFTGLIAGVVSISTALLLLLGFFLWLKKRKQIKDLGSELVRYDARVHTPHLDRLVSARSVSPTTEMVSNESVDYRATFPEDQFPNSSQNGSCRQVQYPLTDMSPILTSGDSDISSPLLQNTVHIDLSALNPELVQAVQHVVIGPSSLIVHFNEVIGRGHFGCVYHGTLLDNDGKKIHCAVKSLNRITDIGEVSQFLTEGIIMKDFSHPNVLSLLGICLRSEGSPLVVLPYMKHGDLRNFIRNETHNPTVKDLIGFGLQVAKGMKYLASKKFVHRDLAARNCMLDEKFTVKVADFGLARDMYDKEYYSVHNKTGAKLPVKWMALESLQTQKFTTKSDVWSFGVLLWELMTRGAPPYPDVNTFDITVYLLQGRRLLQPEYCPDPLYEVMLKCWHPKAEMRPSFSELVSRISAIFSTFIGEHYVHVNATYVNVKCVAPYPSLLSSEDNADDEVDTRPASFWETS

Consider `CCCN(CCCN)C(=O)c1cccc(-c2cnc3c(-c4ccccn4)c(N)nn3c2)n1` [Compound V-122], for which the values for the pKi on c-Met, on Itk and on JAK3 were above 6.30, above 6.30 and 5.30 to 6.30, respectively.
Take `Nc1nn2cc(CCCNC3CC3)cnc2c1-c1ccccn1` [Compound V-322]: the results for the pKi on c-Met, on Itk and at JAK3 were 5.30 to 6.30, 5.30 to 6.30 and below 5.30, respectively.
Turning to `Nc1nn2cc(N3CCCCC3)cnc2c1-c1ccccn1` [Compound V-59], the pKi on c-Met was 5.30 to 6.30; at Itk, 5.30 to 6.30; on JAK3, below 5.30.
Consider `CCN(Cc1ccccc1)C(=O)c1c(N)nn2cc(-c3ccncn3)cnc12` [Compound V-42], for which the pKi was 5.30 to 6.30 at c-Met, 5.30 to 6.30 at Itk and below 5.30 on JAK3.
With `CN(Cc1cccnc1)c1cc(-c2cnc3c(-c4ccccn4)c(N)nn3c2)ccn1` [Compound V-252], the values for the pKi on c-Met, on Itk and at JAK3 were 5.30 to 6.30, 5.30 to 6.30 and below 5.30, respectively.
Turning to `Nc1nn2cc(CCCN3CCCCC3)cnc2c1-c1ccccn1` [Compound V-312], the pKi at c-Met was 5.30 to 6.30; at Itk, 5.30 to 6.30; on JAK3, below 5.30.
With `CN(CCC#N)C(=O)c1c(N)nn2cc(-c3ccncn3)cnc12` [Compound V-40], the pKi on c-Met was 5.30 to 6.30; on Itk it was 5.30 to 6.30; on JAK3, below 5.30.
As to `Nc1nn2cc(-c3cccc(C(=O)N4CCC4)n3)cnc2c1-c1ccccn1` [Compound V-123], the pKi is above 6.30 at c-Met, 5.30 to 6.30 on Itk and below 5.30 at JAK3.
In the same order, the values of `Nc1nn2cc(-c3ccncn3)cnc2c1-c1nncn1Cc1ccc(Cl)c(Cl)c1` [Compound V-136] are 5.30 to 6.30, 5.30 to 6.30 and below 5.30.
Turning to `CCN(CCN)C(=O)c1cccc(-c2cnc3c(-c4ccccn4)c(N)nn3c2)n1` [Compound V-126], the pKi was above 6.30 on c-Met, 5.30 to 6.30 at Itk and below 5.30 at JAK3.
For `Nc1nn2cc(-c3cccnc3N3CCCCC3)cnc2c1-c1ccccn1` [Compound V-259] the same measures were 5.30 to 6.30, 5.30 to 6.30 and below 5.30.
In the same order, the values of `Cc1cnc2c(-c3cc(N4CCC(c5ccccc5)C4)ncn3)c(N)nn2c1` (stereo not drawn) [Compound V-303] are 5.30 to 6.30, 5.30 to 6.30 and 5.30 to 6.30.
Consider `Nc1nn2cc(NC(=O)c3ccccc3)cnc2c1-c1ccccn1` [Compound V-235], for which the values for the pKi on c-Met, on Itk and at JAK3 were 5.30 to 6.30, 5.30 to 6.30 and below 5.30, respectively.
`CN(C)CCN(Cc1ccccc1)C(=O)c1c(N)nn2cc(-c3ccncn3)cnc12` [Compound V-35]: the pKi at c-Met is 5.30 to 6.30; on Itk it was 5.30 to 6.30; on JAK3, below 5.30.
Take `Nc1nn2cc(-c3ccc(N4CCN(CCOCCO)CC4)nc3)cnc2c1-c1ccccn1` [Compound V-150]: the pKi was above 6.30 at c-Met, above 6.30 at Itk and below 5.30 at JAK3.
Consider `Nc1nn2cc(CCCN3CC[C@H](O)C3)cnc2c1-c1ccccn1` [Compound V-325], for which the values for the pKi at c-Met, at Itk and on JAK3 were 5.30 to 6.30, 5.30 to 6.30 and below 5.30, respectively.
For the compound `Cc1cnc2c(-c3cc(N4CCCC4c4ccc(F)cc4)ncn3)c(N)nn2c1` (stereo not drawn) [Compound V-307], the pKi on c-Met was above 6.30; at Itk, 5.30 to 6.30; on JAK3, 5.30 to 6.30.
For `CN(C)CCCc1cnc2c(-c3ccccn3)c(N)nn2c1` [Compound V-316], the pKi on c-Met was 5.30 to 6.30; on Itk it was 5.30 to 6.30; on JAK3, below 5.30.
Regarding `Nc1nn2cc(-c3cccnc3N3CCC(CCO)CC3)cnc2c1-c1ccccn1` [Compound V-271], the pKi is 5.30 to 6.30 at c-Met, 5.30 to 6.30 on Itk and below 5.30 on JAK3.
In the case of `Nc1nn2cc(-c3ccccc3-c3ccccc3)cnc2c1-c1ccccn1` [Compound V-15], the pKi at c-Met is 5.30 to 6.30; at Itk, 5.30 to 6.30; at JAK3 it was below 5.30.
For `Nc1nn2cc(-c3ccncc3)cnc2c1-c1cccc(NCCC2=CCCCC2)n1` [Compound V-138], the pKi on c-Met is 5.30 to 6.30; on Itk it was 5.30 to 6.30; on JAK3 it was below 5.30.
For `Cc1n[nH]c(C)c1-c1cnc2c(-c3ccccn3)c(N)nn2c1` [Compound V-53], the pKi at c-Met is above 6.30; on Itk it was 5.30 to 6.30; at JAK3 it was below 5.30.
In the same order, the values of `Nc1nn2cc(-c3cccc(C(=O)N4CCC(CCO)CC4)n3)cnc2c1-c1ccccn1` [Compound V-141] are above 6.30, 5.30 to 6.30 and below 5.30.
In the same order, the values of `Nc1nn2cc(C(=O)NCc3ccccc3)cnc2c1-c1ccccn1` [Compound V-207] are 5.30 to 6.30, 5.30 to 6.30 and below 5.30.
In the same order, the values of `Cc1ccc(-c2cnc3c(-c4ccccc4Br)c(N)nn3c2)cc1` [Compound V-31] are 5.30 to 6.30, 5.30 to 6.30 and below 5.30.
Regarding `Nc1nn2cc(N3CCCC3)cnc2c1-c1ccccn1` [Compound V-58], the pKi on c-Met is above 6.30; at Itk it was 5.30 to 6.30; on JAK3, below 5.30.
On to `CN1CCN(c2ncccc2-c2cnc3c(-c4ccccn4)c(N)nn3c2)CC1` [Compound V-268], for which the negative-log Ki (pKi) on c-Met is 5.30 to 6.30; at Itk it was 5.30 to 6.30; at JAK3, below 5.30.
As for `Nc1nn2cc(-c3ccncn3)cnc2c1C(=O)O` [Compound V-28], the pKi on c-Met was 5.30 to 6.30; on Itk, 5.30 to 6.30; at JAK3, below 5.30.
Regarding `CN1CCC(N(C)c2ccc(-c3cnc4c(-c5ccccn5)c(N)nn4c3)cn2)CC1` [Compound V-169], the pKi was above 6.30 at c-Met, above 6.30 at Itk and below 5.30 at JAK3.
As for `Cc1cnc2c(-c3cc(N4CCCC4C)ncn3)c(N)nn2c1` (stereo not drawn) [Compound V-299], the pKi at c-Met, at Itk and on JAK3 was above 6.30 each time.
As to `CN(CCc1ccccn1)C(=O)c1ccc(-c2cnc3c(-c4ccccn4)c(N)nn3c2)nc1` [Compound V-60], the pKi on c-Met is above 6.30; on Itk, 5.30 to 6.30; at JAK3 it was 5.30 to 6.30.
In the case of `Nc1nn2cc(-c3ccncc3)cnc2c1-c1ccccc1` [Compound V-187], the figures for the pKi at c-Met, on Itk and on JAK3 were above 6.30, 5.30 to 6.30 and below 5.30, respectively.
For the compound `Nc1nn2cc(-c3ccnc(N4CCN(Cc5ccccc5)CC4)c3)cnc2c1-c1ccccn1` [Compound V-247], the pKi on c-Met is above 6.30; at Itk, 5.30 to 6.30; at JAK3, below 5.30.

These data come from patent US7528138B2, “Pyrazolo[1,5-a]pyrimidines useful as inhibitors of protein kinases” (Vertex Pharmaceuticals Incorporated, priority 2004, dated 2009).
